Data published in patent US4376766A, “Anti-sickling agents” (G.D. Searle & Co., priority 1980, dated 1983).

Columns and labels:
whole sickle cells = assay: Microscopic whole cell sickling assay; type: cell-based, human
Description: (§1) The uptake of oxygen by haemoglobin as a function of oxygen pressure gives a measure of the oxygen affinity of the haemoglobin and is often described by the value of P50, i.e. the pressure of oxygen at which haemoglobin is 50% saturated with O2. The P50 for HbS is typically higher than that for HbA, the decreased affinity for O2 compensating for the anaemia associated with the disease by facilitating release of O2 to the tissues. An agent which would decrease the P50 of HbS would cause the deoxy-form of the molecule to be less favoured and would thus inhibit polymerisation. It is possible to correlate the degree of oxygenation of sickle erythrocytes with the ability thereof to assume sickled morphology by counting deoxygenated cells using a light microscope. An anti-sickling agent which reduces the number of sickled cells produced at low oxygen concentrations would be effective in preventing or diminishing a crisis.
There are fewer sickle cells in the presence of the dipeptide over the entire range of oxygen concentration. […] In vivo, this increased reversibility would reduce the number of circulating irreversibly sickled cells (ISC).

HbS = assay: Rate of polymerisation of HbS: lag time before onset of gelation after temperature jump; type: biochemical, human; conditions: different molar ratios of dipeptide:HbS, FIG. 4
Protocol: The rate of polymerisation of HbS molecules may be followed by spectrophotometrically monitoring the onset of gelation, after a temperature jump from 0° C. to 37° C., in a concentrated HbS solution. An effective anti-sickling agent should reduce the rate of polymerisation by at least ten-fold.

[1] = Solubility in physiological buffers; type: physicochemical
[2] = test system: sickle cell haemoglobin (HbS); assay: HbS gelation assay (solubility Csol of deoxygenated HbS); type: biochemical, human
Protocol: A number of in vitro methods have been developed for testing the effects of compounds of the functioning of HbS molecules. One such method determines the ability of a compound to inhibit gel formation in HbS solutions. In this gelation assay, Hb solution in phosphate buffer, pH 7.0, at physiological concentrations are mixed at 0° C. with the test compound and deoxygenated by evacuation. […] The solutions are then transferred to centrifuge tubes and equilibrated at 37° C. for 30 minutes before centrifugation at 150,000 g for 1 hour. The supernatant is decanted from the gel and the Hb concentration (Csol) thereof determined spectrophotometrically. For sickle cell haemoglobin without addition of anti-sickling agent, the Csol is typically 17 gm/dl. This compares with a Csol of 23 gm/dl for haemoglobin extracted from individuals having sickle cell trait.

SS cells = assay: Oxygen dissociation curve (P50) of sickle cells; type: cell-based, human
Description: as §1

## L-lysine-L-phenylalanine
Whole sickle cells
  inhibition of whole cell sickling: inhibits whole cell sickling
Whole sickle cells; compared with control
  proportion of sickled cells becoming unsickled as oxygen is made available: a greater proportion becomes unsickled
Whole sickle cells; complete deoxygenation, in vitro dose response, FIG. 9, read-out: extra-cellular concentration reducing the number of sickled cells by 50%
  IC50: ~5 mM
Whole sickle cells; pre-incubation with peptide, different partial pressures of oxygen
  percentage of sickled cells: substantially reduced
Whole sickle cells; zero oxygen tension, FIG. 8
  pre-incubation time sufficient to protect against sickling: 15 min
HbS
  lag time before gelation (rate of polymerisation): increase in the delay before gelation
[1]
  solubility in physiological buffers: readily soluble
[2]; FIG. 2
  effect on Csol of HbS: increase in Csol
[2]; in vitro
  inhibition of gelation of deoxygenated HbS solutions: inhibit the gelation
[2]; peptide:Hb tetramer ratio of 4.7:1, from linear plot of Csol versus log (peptide:Hb), HbS without agent typically 17 gm/dl
  Csol (solubility of homozygous sickle cell haemoglobin): 23 gm/dl
[2]; relative to L-phenylalanine
  increase of HbS solubility over L-phenylalanine: four-fold
SS cells; SS cells + 25 mM peptide, 3 hours incubation at 37° C., 5:1 molar ratio extra-cellular dipeptide:intra-cellular HbS, 51 mm without peptide
  P50: 41 mm of mercury
SS cells; incubation with peptide
  oxygen affinity of cells: increase in oxygen affinity
